The text below walks through data of article PMC8533211, “Computationally Assisted Lead Optimization of Novel Potent and Selective MAO-B Inhibitors” (Biomedicines, 2021).

Some results are limits rather than exact numbers.

One experiment deals with human recombinant MAO A. As to conditions: human recombinant; kynuramine; cited from earlier work.
The subject of a further experiment is human recombinant MAO B. As to conditions: cited from earlier work; for IC50: human recombinant, kynuramine.
The target in another experiment is T1, human recombinant MAO-A (Homo sapiens, UniProt P21397).
T1 construct: purchased BD Biosciences (Bedford, MA, USA)
T1 sequence (P21397 1-527): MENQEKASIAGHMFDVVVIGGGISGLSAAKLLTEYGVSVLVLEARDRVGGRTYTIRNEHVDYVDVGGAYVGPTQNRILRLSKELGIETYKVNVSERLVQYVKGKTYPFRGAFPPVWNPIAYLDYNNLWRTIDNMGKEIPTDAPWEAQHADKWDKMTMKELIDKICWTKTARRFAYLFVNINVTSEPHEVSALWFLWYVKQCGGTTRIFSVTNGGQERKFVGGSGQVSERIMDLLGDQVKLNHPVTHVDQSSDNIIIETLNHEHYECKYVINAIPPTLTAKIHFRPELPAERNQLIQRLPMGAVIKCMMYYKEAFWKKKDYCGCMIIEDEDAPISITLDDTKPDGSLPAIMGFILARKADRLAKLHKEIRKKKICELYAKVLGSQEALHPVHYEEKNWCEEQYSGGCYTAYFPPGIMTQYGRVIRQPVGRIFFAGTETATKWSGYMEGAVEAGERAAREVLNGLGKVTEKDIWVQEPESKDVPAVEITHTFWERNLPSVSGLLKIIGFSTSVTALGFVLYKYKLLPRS
Briefly: kynuramine oxidation deamination assay, MAO-A inhibition (IC50). In kind it is biochemical. Particulars: kynuramine 80 μM, mean ± S.D. of triplicate. How it is done: (§1) A fixed single concentration of kynuramine substrate and varying concentrations of the test inhibitor were used to determine the IC50 values. The kynuramine concentrations for MAO-A and -B were 80 μM and 50 μM, respectively. These concentrations of kynuramine were twice the apparent KM value for substrate binding. […] Enzymatic reactions were performed in 50 μL of the assay mixture containing 0.1 M potassium phosphate buffer, pH 7.4. […] Reactions were initiated by the addition of 12.50 μL of MAO-A (to 5 μg/mL) or -B (to 10 μg/mL). The plate was incubated for 20 min at 37 °C, and the enzymatic reaction was terminated by the addition of 18.8 μL of 2N NaOH. Formation of the enzyme product, 4-hydroxyquinoline, was measured fluorometrically using a SpectraMax M5 fluorescence plate reader (Molecular Devices, Sunnyvale, CA, USA) with excitation (320 nm) and emission (380 nm) wavelengths and the Soft Max Pro program. The inhibition effects of enzyme activity were calculated as percent of product formation compared to the corresponding control (enzyme–substrate reaction) without inhibitors. Controls included the assays where the enzyme or the substrate was added after terminating the reaction to determine the interference with the fluorescence measurements. The IC50 values for MAO-A and -B inhibition were calculated from the concentration-dependent inhibition curves using XLFit® software.

A further experiment addresses T2, human recombinant MAO-B (Homo sapiens, UniProt P27338).
T2 sequence (P27338 1-520): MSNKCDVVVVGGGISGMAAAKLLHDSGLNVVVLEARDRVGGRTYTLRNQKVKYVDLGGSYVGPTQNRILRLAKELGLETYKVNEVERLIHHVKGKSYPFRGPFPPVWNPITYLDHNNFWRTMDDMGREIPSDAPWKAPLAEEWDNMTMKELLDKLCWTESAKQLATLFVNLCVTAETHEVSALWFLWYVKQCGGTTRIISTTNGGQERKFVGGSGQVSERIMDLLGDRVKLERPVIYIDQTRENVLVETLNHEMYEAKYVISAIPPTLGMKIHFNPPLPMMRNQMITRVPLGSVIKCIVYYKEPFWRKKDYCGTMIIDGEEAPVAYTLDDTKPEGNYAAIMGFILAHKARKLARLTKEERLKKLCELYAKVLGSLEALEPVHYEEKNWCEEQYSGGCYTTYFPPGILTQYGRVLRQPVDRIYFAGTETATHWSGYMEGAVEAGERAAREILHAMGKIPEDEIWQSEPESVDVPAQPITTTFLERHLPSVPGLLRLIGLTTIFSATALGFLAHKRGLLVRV
Description: kynuramine oxidation deamination assay, MAO-B inhibition (IC50). Set-up: purchased BD Biosciences (Bedford, MA, USA). In kind it is biochemical. As to conditions: for Selectivity Index MAO-A/B: ratio of IC50 MAO-A / MAO-B; for IC50: recombinant human MAO-B, kynuramine 50 μM, mean ± S.D. of triplicate. As to the method:
as §1, with “The kynuramine concentrations for MAO-A and -B were 80 μM and 50 μM, respectively.” left out

Regarding `COc1ccc(-c2oc3cc(O)cc(O)c3c(=O)c2OC)cc1` [3,4′-Di-O-methyl kaempferol], the IC50 is 0.033 ± 0.042 µM in the experiment on human recombinant MAO A and 9.67 ± 2.39 µM with human recombinant MAO B.
With `COc1ccc(-c2oc3cc(O)cc(O)c3c(=O)c2O)cc1` [4′-O-Methyl kaempferol], the IC50 in the experiment on human recombinant MAO A is 1.35 ± 0.198 µM; in the experiment on human recombinant MAO B, more than 100 µM.
For `O=c1cc(-c2ccc(O)cc2)oc2cc(O)cc(O)c12` [Apigenin], the IC50 was 0.64 ± 0.11 µM in the experiment with human recombinant MAO A and 1.12 ± 0.27 µM with human recombinant MAO B.
Consider `CCCOc1ccc(/C=C/C(=O)c2c(O)cc(OC)cc2OC)cc1` [Compound 1a, (E)-1-(2-Hydroxy-4,6-dimethoxyphenyl)-3-(4-propoxyphenyl)prop-2-en-1-one], for which the IC50 at human recombinant MAO-A was determined as 0.515 ± 0.024 µM. For the same compound, at human recombinant MAO-B, the “Selectivity Index MAO-A/B” value is 1.3 and the IC50 came out at 0.4 ± 0.024 µM.
For `CCCOc1ccc(-c2cc(=O)c3c(OC)cc(OC)cc3o2)cc1` [Compound 1b, 5,7-Dimethoxy-2-(4-propoxyphenyl)-4H-chromen-4-one], the IC50 on human recombinant MAO-A was more than 100 µM. On human recombinant MAO-B, the “Selectivity Index MAO-A/B” value was more than 58.8 and the IC50 came out at 1.7 ± 0.076 µM.
In the same order, the values of `COc1cc(O)c(C(=O)/C=C/c2ccc(OC(C)C)cc2)c(OC)c1` [Compound 2a, (E)-1-(2-Hydroxy-4,6-dimethoxyphenyl)-3-(4-isopropoxyphenyl)prop-2-en-1-one] are 0.117 ± 0.05 µM, 2.4 and 0.049 ± 0.0035 µM.
The matching figures for `COc1cc(OC)c2c(=O)cc(-c3ccc(OC(C)C)cc3)oc2c1` [Compound 2b, 2-(4-Isopropoxyphenyl)-5,7-dimethoxy-4H-chromen-4-one]: more than 100 µM, more than 37.9 and 2.64 ± 0.088 µM.
With `COc1cc(O)c(C(=O)/C=C/c2ccc(OCC(C)C)cc2)c(OC)c1` [Compound 3a, (E)-1-(2-Hydroxy-4,6-dimethoxyphenyl)-3-(4-isobutoxyphenyl)prop-2-en-1-one], at human recombinant MAO-A, the IC50 is 0.42 ± 0.002 µM. For the same compound, on human recombinant MAO-B, the “Selectivity Index MAO-A/B” value is listed as 1.9 and the IC50 amounted to 0.22 ± 0.0211 µM.
In the same order, the values of `COc1cc(OC)c2c(=O)cc(-c3ccc(OCC(C)C)cc3)oc2c1` [Compound 3b, 2-(4-Isobutoxyphenyl)-5,7-dimethoxy-4H-chromen-4-one] are more than 100 µM, more than 13.8 and 7.23 ± 2.14 µM.
The matching figures for `C#CCOc1ccc(/C=C/C(=O)c2c(O)cc(OC)cc2OC)cc1` [Compound 4a, (E)-1-(2-Hydroxy-4,6-dimethoxyphenyl)-3-(4-(prop-2-yn-1-yloxy)phenyl)prop-2-en-1-one]: 9.42 ± 1.78 µM, 1.1 and 8.33 ± 0.787 µM.
For the compound `C#CCOc1ccc(-c2cc(=O)c3c(OC)cc(OC)cc3o2)cc1` [Compound 4b, 5,7-Dimethoxy-2-(4-(prop-2-yn-1-yloxy)phenyl)-4H-chromen-4-one], on human recombinant MAO-A, the half-inhibitory concentration (IC50) was more than 100 µM. In addition, at human recombinant MAO-B, the “Selectivity Index MAO-A/B” value was more than 1 and the IC50 is more than 100 µM.
For `COc1cc(O)c(C(=O)/C=C/c2ccc(OCC3CC3)cc2)c(OC)c1` [Compound 5a, (E)-3-(4-(Cyclopropylmethoxy)phenyl)-1-(2-hydroxy-4,6-dimethoxyphenyl)prop-2-en-1-one], the IC50 on human recombinant MAO-A was found to be 1.3 ± 0.09 µM. In addition, on human recombinant MAO-B, the “Selectivity Index MAO-A/B” value stood at 1.4 and the IC50 worked out at 0.9 ± 0.035 µM.
Turning to `COc1cc(OC)c2c(=O)cc(-c3ccc(OCC4CC4)cc3)oc2c1` [Compound 5b, 2-(4-(Cyclopropylmethoxy)phenyl)-5,7-dimethoxy-4H-chromen-4-one], the concentration for half-maximal inhibition (IC50) at human recombinant MAO-A is more than 100 µM. Besides, at human recombinant MAO-B, the “Selectivity Index MAO-A/B” value was more than 4.4 and the IC50 was 22.8 ± 2.1 µM.
Consider `COc1cc(O)c(C(=O)/C=C/c2ccc(Br)cc2)c(OC)c1` [Compound 6a, (E)-3-(4-Bromophenyl)-1-(2-hydroxy-4,6-dimethoxyphenyl)prop-2-en-1-one], for which the IC50 on human recombinant MAO-A was 12.3 ± 0.249 µM; at human recombinant MAO-B it was more than 100 µM.
Consider `COc1cc(OC)c2c(=O)cc(-c3ccc(Br)cc3)oc2c1` [Compound 6b, 2-(4-Bromophenyl)-5,7-dimethoxy-4H-chromen-4-one], for which the IC50 is 87.8 ± 5.45 µM on human recombinant MAO-A and 28.4 ± 2.64 µM at human recombinant MAO-B. For the same compound, the “Selectivity Index MAO-A/B” value at human recombinant MAO-B is 3.1.
The matching figures for `CCCNc1ccc(-c2cc(=O)c3c(OC)cc(OC)cc3o2)cc1` [Compound 6c, 5,7-Dimethoxy-2-(4-(propylamino)phenyl)-4H-chromen-4-one]: more than 100 µM, 22.1 ± 2.48 µM and more than 4.5.
`CCCNc1ccc(-c2cc(=O)c3c(O)cc(OC)cc3o2)cc1` [Compound 6d, 5-Hydroxy-7-methoxy-2-(4-(propylamino)phenyl)-4H-chromen-4-one]: the 50% inhibitory concentration (IC50) on human recombinant MAO-A turned out to be 85.5 ± 1.59 µM. On human recombinant MAO-B, the “Selectivity Index MAO-A/B” value is on record as 55.0 and the 50% inhibitory concentration (IC50) came to 1.55 ± 0.137 µM.
As to `COc1cc(OC)c2c(=O)cc(-c3ccc(NC(C)C)cc3)oc2c1` [Compound 7c, 2-(4-(Isopropylamino)phenyl)-5,7-dimethoxy-4H-chromen-4-one], the IC50 at human recombinant MAO-A turned out to be 37.5 ± 0.476 µM; at human recombinant MAO-B it was 9.45 ± 0.113 µM. The “Selectivity Index MAO-A/B” value on human recombinant MAO-B was 4.0.
In the same order, the values of `COc1cc(O)c2c(=O)cc(-c3ccc(NC(C)C)cc3)oc2c1` [Compound 7d, 5-Hydroxy-2-(4-(Isopropylamino)phenyl)-7-methoxy-4H-chromen-4-one] are 40.5 ± 2.37 µM, 0.417 ± 0.012 µM and 97.1.
The matching figures for `COc1cc(OC)c2c(=O)cc(-c3ccc(NCC4CC4)cc3)oc2c1` [Compound 8c, 2-(4-((Cyclopropylmethyl)amino)phenyl)-5,7-dimethoxy-4H-chromen-4-one]: 39.1 ± 5.14 µM, 12.7 ± 0.29 µM and 3.1.
For the compound `COc1cc(O)c2c(=O)cc(-c3ccc(NCC4CC4)cc3)oc2c1` [Compound 8d, 2-(4-((Cyclopropylmethyl)amino)phenyl)-5-hydroxy-7-methoxy-4H-chromen-4-one], the IC50 at human recombinant MAO-A turned out to be 39.1 ± 0.555 µM. Moreover, on human recombinant MAO-B, the “Selectivity Index MAO-A/B” value was 17.9 and the IC50 amounted to 2.19 ± 0.088 µM.
`COc1ccc(-c2cc(=O)c3c(O)cc(O)cc3o2)cc1O` [Diosmetin]: the IC50 in the experiment with human recombinant MAO A is 5.74 ± 0.57 µM. For the same compound, in the experiment on human recombinant MAO B, the “Selectivity Index MAO-A/B” value is on record as 3.63 and the IC50 was 1.58 ± 0.88 µM.
Turning to `COc1ccc2c(c1)[nH]c1c(C)nccc12` [Harmine, reference compound], the 50% inhibitory concentration (IC50) at human recombinant MAO-B stood at 39 ± 1.41 µM.
As to `C#CCN[C@@H]1CCc2ccccc21` [Rasagiline], in the experiment with human recombinant MAO B, the “nature of MAO-B inhibition (reversible/irreversible)” value is “irreversible MAO-B inhibitors” and the “selectivity towards MAO-B against MAO-A” value was 103 fold.
